“And” between values parts separate entries of the source, which are not always exact repeats. Equal values may be shown once.

The results in this text go back to US4868195A, “Novel enolamides, pharmaceutical compositions and methods of use thereof for activity as modulators of the arachidonic acid cascade” (Warner-Lambert Company, priority 1988, dated 1989).

For experiment [1], the target named is T1, human leukocyte 5-lipoxygenase (Homo sapiens, UniProt P09917).
T1 construct: endogenous in cells; host or cells: intact leukocytes isolated from human blood
T1 sequence (P09917 1-674): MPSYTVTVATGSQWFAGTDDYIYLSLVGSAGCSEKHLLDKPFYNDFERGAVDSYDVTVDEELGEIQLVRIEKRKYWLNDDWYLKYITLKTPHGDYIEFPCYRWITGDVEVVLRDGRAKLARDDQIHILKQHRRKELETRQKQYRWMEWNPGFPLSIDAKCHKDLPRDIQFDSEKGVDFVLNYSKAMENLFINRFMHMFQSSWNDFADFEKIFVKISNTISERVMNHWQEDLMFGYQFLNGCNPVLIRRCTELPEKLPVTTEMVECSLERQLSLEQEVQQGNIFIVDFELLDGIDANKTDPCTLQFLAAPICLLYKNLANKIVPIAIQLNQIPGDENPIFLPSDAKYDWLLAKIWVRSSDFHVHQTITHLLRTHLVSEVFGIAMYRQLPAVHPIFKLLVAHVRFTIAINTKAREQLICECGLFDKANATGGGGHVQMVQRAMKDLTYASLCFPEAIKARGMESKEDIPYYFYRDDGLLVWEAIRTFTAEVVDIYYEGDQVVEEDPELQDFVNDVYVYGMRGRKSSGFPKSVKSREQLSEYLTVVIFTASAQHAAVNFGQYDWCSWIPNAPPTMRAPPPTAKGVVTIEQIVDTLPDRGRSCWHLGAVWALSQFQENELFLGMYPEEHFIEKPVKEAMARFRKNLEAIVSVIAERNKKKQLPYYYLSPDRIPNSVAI
Description: 5-lipoxygenase inhibition in human leukocytes, 5-HETE formation (5LOA; methods 5LOA1 and 5LOA2). In kind it is cell-based. Particulars: 5-HETE formation, human leukocytes; read-out: Concentration (M) for 50.0 % Inhibition, IC (5LOA). The source says: To Evaluate the Effect of Each Compounds as a 5-Lipoxygenase Inhibitor in Comparison to Standard Reference Agents in Human Leukocytes (5LOA1)
The purpose of this assay is to evaluate the activity of each compound as an inhibitor of human leukocyte 5-lipoxygenase.
Arachidonic acid and calcium ionophore A23187 are obtained from Sigma (St. Louis, MO). Silica gel plates, GF are obtained from Analtech (Newark, DE). Arachidonic acid, (1-^14 C) and 5-HETE (^3 H), 5 (S)-hydroxy-6-trans,8,11,14-cis eicosatetraenoic acid, are obtained from New England Nuclear (Boston, MA). Six percent Dextran-70 in 0.9% NaCl is obtained from Cutter Labs (Berkeley, CA).
Preparation of Leukocytes
Fresh blood from normal adult men who had not received any drugs for at least the previous five days is obtained by the Community Research Clinic (WL/PD) using venipuncture and collected into heparinized vacuotainer tubes. To every 100 ml of pooled blood is added 25 ml of dextran solution (6% dextran -70 in 0.9% sodium chloride containing 3% dextrose) and this is mixed gently in a plastic cylinder. The mixture is left to stand at room temperature for at least 90 minutes. The upper layer which is rich in leukocytes and platelets is then carefully decanted into 50 ml plastic tubes and centrifuged at about 100×g for eight minutes in an IEC centrifuge and rotor number 269 (about 600 rpm). The supernatant fluid is discarded and the pellet is resuspended in 10 ml of 0.87% ammonium chloride for exactly two minutes. This procedure is to lyse completely contaminating red blood cells. Leukocytes are then separated by centrifugation for ten minutes. The pellet is washed three times by suspension in 20 ml PBS (sodium chloride, 7.1 g; Na2 HPO4, 1.15 g; KH2 PO4, 0.2 g, and KCl, 0.2 g/L) and centrifuged as before. The final pellet is suspended in PBS containing 0.87 mM CaCl2. Viability of the cells is then checked using trypan blue exclusion method and is found to be over 90%.
5-Lipoxygenase Enzyme Assay
Leukocyte cells in suspension (0.98 ml) are incubated with or without test compounds for five minutes at 37° C. in a shaking water bath. At this time a 17 μl mixture is prepared per 1 ml of cell suspension: 100 mM arachidonic acid, 1 μl, 0.05 μCi ^14 C-arachidonic acid in 5 μl; 1 mM calcium ionophore A23187, 10 μl (1). This mixture is added and the incubation continued for five minutes. The reaction is stopped by adding four volumes of absolute ethanol and the mixture is kept in ice for 30 minutes. The floculated precipitate is separated by centrifugation at about 37,000×g for 20 minutes (Beckman Instruments rotor number 40). The alcohol extract is taken to dryness under a stream of nitrogen and the residue is dissolved in 100-200 μl absolute ethanol. At the time any turbidity is removed by centrifugation. An aliquot (25-50 μl) is applied onto 20×20 cm silica gel TLC plate and developed using the following solvent system: diethyl ether, petroleum ether (2040° C.), acetic acid (50:50:1 v/v). Zones of 1 cm apart are scraped from the TLC plate and transferred to mini-vials. Methanol (0.5 ml) is added to dissolve the radioactivity adsorbed to the silica gel and scintillation fluid (H. P., Beckman), 5 ml is then added and vials are counted in a liquid scintillation counter. A sample of ^3 H-5-HETE is applied and used for the identification of the formed 5-HETE.
Total radioactivity in the test as well as the control samples are normalized and the amount of 5-HETE present is calculated accordingly.
IC50 values are defined as the concentrations of test agents which caused a 50% inhibition of the formation of 5-HETE as compared to control and are determined by inspection of the concentration-response curves.
5-Lipoxygenase Assay Using Isolated Human Leukocytes (5LOA2)
The formation of 5-HETE in human leukocytes is considered a measure of 5-lipoxygenase activity. The protocol is described in the following. […]

In experiment [2] the target is Human Leukocyte Lipoxygenase. Description: Human Leukocyte Lipoxygenase Assay (LDA-H). In kind it is biochemical. Particulars: for IC50: acetone-pentane powder enzyme, 234 nm, 24° C., 5 min preincubation, read-out: Concentration (M) for 50.0 % Inhibition, IC (LDAH). A digest of the protocol:
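Enzyme from acetone-pentane powder of human buffy-coat leukocytes, extracted in 0.1M Tris pH 7.4. Compound preincubated 5 min with enzyme, then reaction started with arachidonic or linoleic acid (100 μM or 1.0 μM) and followed at 234 nm (conjugated diene) at 24° C. IC50 is molar concentration halving control rate.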

In experiment [3] the target is T2, leukotriene receptor (guinea pig lung membranes) (Cavia porcellus, UniProt Q2NNR5).
T2 construct: 20 mg original tissue wet weight of guinea pig lung; tissue Kuiper Rabbit Farm, Gary, IN (animals); host or cells: guinea pig lung, crude membranes
T2 sequence (Q2NNR5 1-340): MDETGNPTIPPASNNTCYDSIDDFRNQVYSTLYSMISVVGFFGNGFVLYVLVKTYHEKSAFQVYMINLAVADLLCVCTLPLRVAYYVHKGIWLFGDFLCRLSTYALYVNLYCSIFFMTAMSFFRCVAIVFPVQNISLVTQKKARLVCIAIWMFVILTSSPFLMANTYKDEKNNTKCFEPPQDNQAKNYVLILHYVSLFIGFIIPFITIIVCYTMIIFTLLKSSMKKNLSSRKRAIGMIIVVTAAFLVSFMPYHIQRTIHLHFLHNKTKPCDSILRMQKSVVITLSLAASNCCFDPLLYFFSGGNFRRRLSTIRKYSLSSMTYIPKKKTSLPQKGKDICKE
Kind of experiment: Binding of ^3 H-Leukotriene D4 to Guinea Pig Lung Membranes (RBL). Particulars: 0.2 nM ^3 H-LTD4, 60 min, 25° C.; read-out: Concentration (M) for 50.0 % Inhibition, IC (RBL). The procedure, abridged: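 Crude lung membranes from 300 g male guinea pigs (20 mg tissue/ml) were incubated in triplicate with 0.2 nM ³H-LTD4 in 50 mM Tris pH 7.7, 10 mM MgCl2, 1% DMSO for 60 min at 25 °C. Bound ligand was collected by GF/B filtration and scintillation counting; nonspecific binding defined with 100 nM LTC4.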

In the case of `O=C(Nc1ccc(CCc2ccc(Cl)cc2)cc1)c1sc2ccccc2c1O` [Example 145, Benzo[b]thiophene-2-carboxamide, N-[4-[2-(4-chlorophenyl)ethyl]phenyl]-3-hydroxy], in experiment [1], the IC50 was 1.21e-05 M.
The same measure, in the same setting: the figure for `COc1ccc(CCc2ccc(NC(=O)c3oc4c5ccccc5n(C)c4c3O)cc2)cc1OC` [Example 161, 4H-Furo[3,2-b]indole-2-carboxamide, N-[4-[2-(3,4-dimethoxyphenyl)ethyl]phenyl]-3-hydroxy-4-methyl] is 9e-06 M; for `Cn1c2ccccc2c2oc(C(=O)Nc3ccc(CCc4ccc(O)c(O)c4)cc3)c(O)c21` [Example 159, 4H-Furo[3,2-b]indole-2-carboxamide, N-[4-[2-(3,4-Dihydroxyphenyl)ethyl]phenyl]-3-hydroxy-4-methyl] it is 1.18e-06 M.
Regarding `COc1cc(CCc2ccc(NC(=O)C3=C(O)c4ccccc4S(=O)(=O)C3)cc2)ccc1O` [Example 70, 2H-1-Benzothiopyran-3-carboxamide, 4-hydroxy-N-[4-[2-(4-hydroxy-3-methoxyphenyl)ethyl]phenyl]-, 1,1-dioxide], the IC50 in experiment [1] is 5e-06 M.
On to `O=C(Nc1ccc(CCc2ccc(O)c(O)c2)cc1)C1=C(O)c2ccccc2S(=O)(=O)C1` [Example 21, N-[4-[2-(3,4-Dihydroxyphenyl)ethyl]phenyl]-4-hydroxy-2H-1-benzothiopyran-3-carboxamide, 1,1-dioxide], for which the IC50 in experiment [1] worked out at 7e-07 M; in experiment [2] it was 8.2e-06 M.
The like results for `O=C(Nc1ccc(CCc2ccc(O)c(O)c2)cc1)c1oc2ccc3ccccc3c2c1O` [Example 122, Naphtho[2,1-b]furan-2-carboxamide, N-[4-[2-(3,4-dihydroxyphenyl)ethyl]phenyl]-1-hydroxy-] were, in that order, 7.6e-07 M and 2.3e-06 M.
As for `COc1ccc2c(c1)c1c(n2-c2ccccc2)C(=O)C(C(=O)Nc2ccc(CCc3ccc(OC)c(OC)c3)cc2)O1` (stereo not shown) [Example 158], in experiment [1], the IC50 came out at 4.8e-06 M.
In the case of `COc1ccc(CCc2ccc(NC(=O)C3Oc4cc5ccccc5cc4C3=O)cc2)cc1OC` (stereo not shown) [Example 101, Naphtho[2,3-b]furan-2-carboxamide, N-[4-[2-(3,4-dimethoxyphenyl)ethyl]phenyl]-2,3-dihydroxy-3-oxo], in experiment [1], the IC50 stood at 8.5e-06 M. For the same molecule, the “% Inhibition (LDAH)” value in experiment [2] (Concentration 2.50 E -5 M) turned out to be 0.0%.
Take `O=C(Nc1ccc(CCc2ccc(O)c(O)c2)cc1)C(=O)C1Oc2cc3ccccc3cc2C1=O` (stereo not shown) [Example 129]: the results for the IC50 in experiment [1] and in experiment [2] were 5e-07 M and 1.6e-06 M, respectively.
`O=C(Nc1ccc(CCc2ccc(O)c(O)c2)cc1)C1Oc2c(n(-c3ccccc3)c3ccc(O)cc23)C1=O` (stereo not shown) [Example 163, 2H-Furo[3,2-b]indole-2-carboxamide, N-[4-[2-(3,4-dihydroxyphenyl)ethyl]phenyl]-3,4-dihydro-7-hydroxy-3-oxo-4-phenyl]: in experiment [1], the IC50 was 5e-07 M. In addition, the “% Inhibition (LDAH)” value in experiment [2] (Concentration 2.50 E -5 M) stood at 0.0%.
For the molecule `O=C(Nc1ccc(CCc2ccc(O)c(O)c2)cc1)c1oc2c(ccc3ccccc32)c1O` [Example 125, Naphtho[1,2-b]furan-2-carboxamide, N-[4-[2-(3,4-dihydroxyphenyl)ethyl]phenyl]-3-hydroxy], the IC50 in experiment [1] amounted to 4.01e-06 M; in experiment [2] it was 6.1e-06 M.
As for `O=C(Nc1ccc(CCc2ccc(O)c(O)c2)cc1)C(=O)C1Oc2ccccc2C1=O` (stereo not drawn) [Example 126, 2-Benzofuranacetamide, N-[4-[2-(3,4-Dihydroxyphenyl)ethyl]phenyl]-2,3-dihydro-α,3-dioxo-], in experiment [1], the IC50 was 3.55e-06 M and 2.17e-06 M.
On to `COc1cc(C=Cc2ccc(NC(=O)C3=C(O)c4ccccc4S(=O)(=O)N3C)cc2)ccc1O` [Example 87, 2H-1,2-Benzothiazine-3-carboxamide, 4-hydroxy-N-[4-[2-(4-hydroxy-3-methoxyphenyl)ethenyl]phenyl]-2-methyl, 1,1-dioxide], for which the IC50 in experiment [1] is 4e-07 M.
For `COc1cc(CCc2ccc(NC(=O)C3Oc4ccc5ccccc5c4C3=O)cc2)ccc1O` (stereo not shown) [Example 110, Naphtho[2,1-b]furan-2-carboxamide, N-[4-[2-(4-hydroxy-3-methoxyphenyl)ethyl]phenyl]-1,2-dihydro-1-oxo], the IC50 in experiment [1] was 6.04e-06 M and 6.35e-06 M.
With `Cc1ccccc1CCc1ccc(NC(=O)C2=C(O)c3ccccc3S(=O)(=O)C2)cc1` [Example 43], the IC50 in experiment [3] came to 2.06e-05 M. Besides, the “% Inhibition (LDAH)” value in experiment [2] (Concentration 8.00 E -5 M) came out at 0.0%.
On to `O=C(Nc1ccc(CCc2ccc(O)c(O)c2)cc1)C(=O)C1=C(O)c2ccccc2S(=O)(=O)C1` [Example 6, N-[4-[2-(3,4-Dihydroxyphenyl)ethyl]phenyl]-4-hydroxy-α-oxo-2H-1-benzothiopyran-3-acetamide, 1,1-dioxide], for which the IC50 in experiment [1] is 2e-05 M and 2.1e-05 M.
Take `CCCCCCCCCCCCc1ccc(NC(=O)C2CS(=O)(=O)c3ccccc3C2=O)cc1` (stereo not shown) [Example 61, N-(4-Dodecylphenyl)-3,4-dihydro-4-oxo-2H-1-benzothiopyran-3-carboxamide, 1,1-dioxide]: the IC50 was 2e-05 M and 2.05e-05 M in experiment [3]; 1e-06 M in experiment [2].
